Data as given in BindingDB's records for patent US12473289 (Amgen, 2025).

Each compound was assayed against Acyl-CoA (8-3)-desaturase (Homo sapiens, UniProt O60427) (assay: Inhibitory Activity using DGLA-CoA and Arachidonyl-CoA Mass Spectrometric Assays).
Procedure: Membrane preparations of D5D-overexpressing HEK293 6E cells were prepared in which the total protein concentration was 5.6 mg/mL.

Sequence of Acyl-CoA (8-3)-desaturase (O60427 whole entry): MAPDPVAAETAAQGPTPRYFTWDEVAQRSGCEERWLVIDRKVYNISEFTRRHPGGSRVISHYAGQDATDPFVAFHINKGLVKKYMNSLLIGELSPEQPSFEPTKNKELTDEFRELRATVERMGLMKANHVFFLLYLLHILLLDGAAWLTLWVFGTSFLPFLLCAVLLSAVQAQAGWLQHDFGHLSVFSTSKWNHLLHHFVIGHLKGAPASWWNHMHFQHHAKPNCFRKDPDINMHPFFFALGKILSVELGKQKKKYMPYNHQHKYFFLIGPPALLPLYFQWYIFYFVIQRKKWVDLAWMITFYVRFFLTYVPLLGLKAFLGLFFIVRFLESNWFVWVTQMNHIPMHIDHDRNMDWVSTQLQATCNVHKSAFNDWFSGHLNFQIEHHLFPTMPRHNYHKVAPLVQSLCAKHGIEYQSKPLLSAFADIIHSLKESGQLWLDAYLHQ

Row | IC50 | Compound
1 | 5.9 nM | COc1ccn2c(=O)c(-c3ccc(OC(F)(F)F)cc3F)c(C(F)(F)F)nc2c1 [US12473289, Example 1-9]
2 | 345 nM | COc1ccn2c(=O)c(-c3cnn(-c4cccc(C(F)(F)F)c4)c3)c(C(F)(F)F)nc2c1 [US12473289, Example 1-19]
3 | 10.4 nM | CSc1ccn2c(=O)c(-c3ccc(OCC(F)(F)F)cc3)c(C(F)(F)F)nc2c1 [US12473289, Example 1-35]
4 | 199 nM | COC(=O)c1ccn2c(=O)c(-c3ccc(OCC(F)(F)F)cc3)c(C(F)(F)F)nc2c1 [US12473289, Example 1-36]
5 | 13.1 nM | COc1ccn2c(=O)c(-c3ccc(OCC4CC4)cc3)c(C(F)(F)F)nc2n1 [US12473289, Example 1-37]
6 | 262 nM | COc1ccn2c(=O)c(-c3ccc(OCC(F)(F)F)nc3)c(C(F)(F)F)nc2n1 [US12473289, Example 1-70]
7 | 6.8 nM | Nc1ccn2c(=O)c(-c3ccc(OCC(F)(F)F)cc3)c(C(F)(F)F)nc2c1 [US12473289, Example 6-2]
8 | 29.6 nM | O=c1c(-c2cnn(CCC(F)(F)F)c2)c(C(F)(F)F)nc2cc(OCF)ccn12 [US12473289, Example 17-3]
9 | 132 nM | O=c1ccn2c(=O)c(-c3cnn(CC(F)(F)C(F)(F)F)c3)c(C(F)(F)F)[nH]c2c1 [US12473289, Example 18]
10 | 141 nM | O=c1c(-c2ccc(OCC(F)(F)F)cc2)c(C(F)(F)F)nc2cc(C(F)F)ccn12 [US12473289, Example 32]
11 | 87.6 nM | COC1=CC2NC(C(F)(F)F)=C(C3C=NC(OCC(F)(F)F)=NC3)C(=O)N2C=C1 (stereo unspecified) [US12473289, Example 37]
12 | 10.1 nM | O=C1C(C2C=NN(CC(F)(F)C(F)(F)F)C2)=C(C(F)(F)F)NC2C=C(OCF)C=CN12 (stereo unspecified) [US12473289, Example 45]
13 | 16.6 nM | O=C1C(C2C=NN(CC(F)(F)C(F)(F)F)C2)=C(C(F)(F)F)NC2C=C(OCCl)C=CN12 (stereo unspecified) [US12473289, Example 46]
14 | 33.5 nM | O=C1C(C2C=NN(CC(F)(F)C(F)(F)F)C2)=C(C(F)(F)F)NC2C=C(OCF)C=NN12 (stereo unspecified) [US12473289, Example 47]
15 | 119 nM | O=C1C(C2C=NN(CC(F)(F)C(F)(F)F)C2)=C(C(F)(F)F)NC2C=C(OCCl)C=NN12 (stereo unspecified) [US12473289, Example 48]
16 | 54.9 nM | COc1cc2nc(C(F)(F)F)c(-c3cnn(C[C@@H]4CC4(F)F)c3)c(=O)n2cc1F [US12473289, Example 72]
